{
  "source": "patent US11286236B2",
  "about": "“Compound, agent and composition for the suppression of cancer growth” (Vector Vitale IP LLC, priority 2018, dated 2022)",
  "assay_type_in_all_cases": "cell-based",
  "key": {"[1]": {"tested_on": "Mouse melanoma cells (MM-4 cell line)", "experiment": "Cytotoxic effect on melanoma cells, single agents (crystal violet)", "protocol": "Materials and Methods: Mouse melanoma cells (MM-4 cell line) were seeded into 96-well plates (TPP, Italy) in DMEM (High Glucose w/L-Glutamine w/o Sodium Pyruvate; Biowest, France) supplemented with 10% newborn calf serum (Biowest, France) and […] gentamicin (Sigma, USA) at a seeding density of 5×10^4 cells/ml. The cells were then cultured in an incubator with a humidified atmosphere of 5% CO2 in air at 37° C. 24 hours after the cells were seeded, a compound according to the invention that comprises ^85Rb-enriched rubidium salt of N-benzoyl-N′-(4-toluenesulfonyl)-o-phenylenediamine of formula I was added into the appropriate wells. ^85Rbe-E2 was used at the following doses: 2.0 μg/ml, 1.0 μg/ml, 0.5 μg/ml (each is the final concentration of ^85Rbe after addition to the well). The cytotoxic effect was determined by counting the number of live cells observed after treatment, expressed as a percentage of the number of live cells observed/counted in the control (cells seed in the well and not treated). Control cells were not treated. For each concentration, the experiment was carried out twice. The effects of the drugs were evaluated visually, which allowed us to examine the morphological pattern of the cytotoxic action of the drugs, and by staining the cells with crystal violet, followed by OD measurement at an excitation wavelength of 540 nm using a MultiScan spectrophotometer. For comparison, a parallel experiment was carried out with the use of a known antitumor drug cisplatin and a compound of rubidium salt of N-benzoyl-N′-(4-toluenesulfonyl)-o-phenylenediamine of formula I which comprised a naturally-abundant mixture of isotopes of rubidium instead of being enriched for the ^85Rb isotope."}, "[2]": {"tested_on": "Mouse Bone Marrow Cells", "experiment": "Cytotoxic/cytostatic effects on mouse bone marrow cells (MTT assay)", "protocol": "In Vitro Assessment of Cytotoxic/Cytostatic Effects of Experimental Compound ^85Rbe-E2 on Mouse Bone Marrow Cells\n(§1) Proliferative and metabolic activity of cells was determined by the colorimetric method.\n(§2) The metabolic activity of the cells (i.e., the number of living cells) was assessed by MTT staining.\n(§3) 24 hours after the last reagent, the cells were seeded at a concentration of 1×10^4 cells/well in wells of a 96-well plate in complete DMEM nutrient medium with 10% FBS and 40 μg/ml gentamicin. The cells were cultured in a humidified atmosphere at 5% CO2 and 37° C. for 24 hours. After 24 hours, various doses of experimental substances were added to the respective wells. The cells were incubated at 37° C. and 5% CO2 for an additional 72 hours.\n(§4) Upon completion of the incubation with the preparations, the proliferative and metabolic activity of the cells in the experiment was evaluated by the colorimetric method by staining MTT cells:\n(§5) 10 μl of the MTT solution (5 mg/ml of the dye in phosphate-buffered saline) was added to each well of the plate; the plate was incubated in a CO2 incubator at 37° C. for 3 hours. After that, the medium was removed from the wells, and the formed tetraformazan crystals were dissolved in 100 μl of dimethylsulfoxide.\n(§6) When MTT was used, the results were evaluated using a multi-well spectrophotometer at an excitation wavelength of 540 nm. The percentage of viable cells was calculated by the formula: IR=(A540(experiment)/A540(control))×100%."}, "[3]": {"tested_on": "Normal Human Fibroblasts", "experiment": "Metabolic activity of normal human fibroblasts (MTT assay)", "protocol": "In Vitro Assessment of the Effects of Experimental Compound ^85Rbe-E2 on metabolic Activity of Normal Human Fibroblasts (MTT Assay)\nIn Vitro Assessment of the Effects of E2+^85Rbe on Metabolic Activity of Normal Human Fibroblasts (MTT Assay)\nas §1, §2, §3, §4, §5, §6"}, "[4]": {"tested_on": "human Keratinocytes (HaCaT line)", "experiment": "Metabolic activity of human keratinocytes (HaCaT line)", "protocol": "In Vitro Effects of Experimental Compound ^85Rbe-E2 on metabolic activity of human Keratinocytes\nas §1, §2, §3, §4, §5, §6"}},
  "note": "Structures can show the parent of a compound that is named as a salt.",
  "data": [
    {"smiles": "N.N.[Cl][Pt][Cl]", "note": "[cisplatin]", "values": [
      {"measurement": "Number of cells after their treatment with the drug, %", "setting": "[1]; cisplatin 0.5 μg/ml", "value": "84 ± 3.3", "unit": "%"},
      {"measurement": "Number of cells after their treatment with the drug, %", "setting": "[1]; cisplatin 1.0 μg/ml", "value": "51.7 ± 6.9", "unit": "%"},
      {"measurement": "Number of cells after their treatment with the drug, %", "setting": "[1]; cisplatin 2.5 μg/ml", "value": "24.6 ± 5.2", "unit": "%"},
      {"measurement": "Number of cells after their treatment with the drug, %", "setting": "[1]; cisplatin 5 μg/ml", "value": "13.8 ± 1.2", "unit": "%"},
      {"measurement": "Number of cells after their treatment with the drug, %", "setting": "[1]; cisplatin 10 μg/ml", "value": "2.6 ± 1.4", "unit": "%"}
    ]},
    {"smiles": "Cc1ccc(S(=O)(=O)Nc2ccccc2NC(=O)c2ccccc2)cc1", "note": "[^85Rbe − E2, ^85Rb-enriched rubidium salt of N-benzoyl-N′-(4-toluenesulfonyl)-o-phenylenediamine]", "values": [
      {"measurement": "Metabolic activity of cells, %", "setting": "[2]; 1.25 μg/ml", "value": "119.1 ± 0.2", "unit": "%"},
      {"measurement": "Metabolic activity of cells, %", "setting": "[2]; 2.5 μg/ml", "value": "97.4 ± 1.4", "unit": "%"},
      {"measurement": "Metabolic activity of cells, %", "setting": "[2]; 5 μg/ml", "value": "90.2 ± 3.3", "unit": "%"},
      {"measurement": "Metabolic activity of cells, %", "setting": "[2]; 10 μg/ml", "value": "45 ± 4.7", "unit": "%"},
      {"measurement": "Metabolic activity of cells, %", "setting": "[2]; 20 μg/ml", "value": "24.2 ± 0.8", "unit": "%"},
      {"measurement": "Metabolic activity of cells, %", "setting": "[2]; 38 μg/ml", "value": "19.1 ± 1.9", "unit": "%"},
      {"measurement": "Metabolic activity of cells, %", "setting": "[2]; 75 μg/ml", "value": "18.5 ± 0.4", "unit": "%"},
      {"measurement": "Metabolic activity of cells, %", "setting": "[2]; 150 μg/ml", "value": 0, "unit": "%"},
      {"measurement": "Metabolic activity of cells, %", "setting": "[3]; 1.25 μg/ml", "value": "105.1 ± 2.3", "unit": "%"},
      {"measurement": "Metabolic activity of cells, %", "setting": "[3]; 2.5 μg/ml", "value": "84.4 ± 4.6", "unit": "%"},
      {"measurement": "Metabolic activity of cells, %", "setting": "[3]; 5 μg/ml", "value": "82.3 ± 3^ %"},
      {"measurement": "Metabolic activity of cells, %", "setting": "[3]; 10 μg/ml", "value": "82.5 ± 1.3", "unit": "%"},
      {"measurement": "Metabolic activity of cells, %", "setting": "[3]; 20 μg/ml", "value": "74 ± 1.3", "unit": "%"},
      {"measurement": "Metabolic activity of cells, %", "setting": "[3]; 38 μg/ml", "value": "68.5 ± 1.8", "unit": "%"},
      {"measurement": "Metabolic activity of cells, %", "setting": "[3]; 75 μg/ml", "value": "67.4 ± 4.7", "unit": "%"},
      {"measurement": "Metabolic activity of cells, %", "setting": "[3]; 150 μg/ml", "value": "72.8 ± 2.1", "unit": "%"},
      {"measurement": "Number of cells after their treatment with the drug, %", "setting": "[1]; 0.5 μg/ml of rubidium (85Rbe or Rb)", "value": "32.3 ± 0.7", "unit": "%"},
      {"measurement": "Number of cells after their treatment with the drug, %", "setting": "[1]; 1.0 μg/ml of rubidium (85Rbe or Rb)", "value": "8.3 ± 0.5", "unit": "%"},
      {"measurement": "Number of cells after their treatment with the drug, %", "setting": "[1]; 2.0 μg/ml of rubidium (85Rbe or Rb)", "value": "6.4 ± 0.3", "unit": "%"},
      {"measurement": "Metabolic activity of cells, %", "setting": "[4]; 8 ng/ml", "value": "114 ± 7.7", "unit": "%"},
      {"measurement": "Metabolic activity of cells, %", "setting": "[4]; 16 ng/ml", "value": "98 ± 4", "unit": "%"},
      {"measurement": "Metabolic activity of cells, %", "setting": "[4]; 31 ng/ml", "value": "97.8 ± 3.6", "unit": "%"},
      {"measurement": "Metabolic activity of cells, %", "setting": "[4]; 62 ng/ml", "value": "90.7 ± 2.7", "unit": "%"},
      {"measurement": "Metabolic activity of cells, %", "setting": "[4]; 0.13 μg/ml", "value": "95.3 ± 10.7", "unit": "%"},
      {"measurement": "Metabolic activity of cells, %", "setting": "[4]; 0.25 μg/ml", "value": "100 ± 8.7", "unit": "%"},
      {"measurement": "Metabolic activity of cells, %", "setting": "[4]; 0.5 μg/ml", "value": "90 ± 1", "unit": "%"},
      {"measurement": "Metabolic activity of cells, %", "setting": "[4]; 1 μg/ml", "value": 0, "unit": "%"}
    ]}
  ]
}
